According to ChEMBL document CHEMBL1121687, “2-Benzodioxinylaminoethanols: a new class of beta-adrenergic blocking and antihypertensive agents” (J Med Chem, 1981):
Activity calls are given as the source filed them. The calls are words filed in the database; no cut-off is given here.

How the values were obtained:
[1] = biological target: Beta-1 adrenergic receptor (Cavia porcellus) (UniProt B0FL73); test: (§1) Antagonist activity of compound against Beta-1 adrenergic receptor in isolated guinea pig left atria; type: functional
[2] = biological target: Beta-2 adrenergic receptor (Cavia porcellus) (UniProt Q8K4Z4); test: Antagonist activity of compound (10e-4 mol/L) against beta 2-adrenergic receptor in isolated guinea pig trachea; Inactive at a concentration of 10e-4 M/L; type: functional, tissue-based
[3] = test system: Rattus norvegicus; test: Change in systolic blood pressure in anesthetized spontaneous hypertensive rats when 2.5 mg/kg of compound was administered intravenously; settings: route intravenous
[4] = test system: Rattus norvegicus; test: as above; settings: route intravenous; remark: listed apart in the source
[5] = test system: Rattus norvegicus; test: Change in diastolic blood pressure in anesthetized spontaneous hypertensive rats when 5 mg/kg of compound was administered intravenously; type: functional, Artery; settings: route intravenous
[6] = test system: Rattus norvegicus; test: Duration of action of 2 mg/kg intravenous dose of compound was determined in SHR test for antihypertensive activity in rats; type: functional
[7] = test system: Rattus norvegicus; test: Duration of action of 5 mg/kg intravenous dose of compound was determined in SHR test for antihypertensive activity in rats; type: functional
[8] = test system: Rattus norvegicus; test: Change in diastolic blood pressure in anesthetized spontaneous hypertensive rats when 2 mg/kg of compound was administered intravenously; type: functional, Artery; settings: route intravenous
[9] = test system: Rattus norvegicus; test: Change in diastolic blood pressure in anesthetized spontaneous hypertensive rats when 20 mg/kg of compound was administered intravenously; type: functional, Artery; settings: route intravenous
[10] = biological target: Beta-2 adrenergic receptor (Cavia porcellus) (UniProt Q8K4Z4); test: Antagonist activity of compound against Beta-2 adrenergic receptor in isolated guinea pig trachea; Inactive at a concentration of 10e-4 M/L; type: functional, tissue-based
[11] = species: Rattus norvegicus; test: Duration of action of compound was determined for antihypertensive action in rats; type: functional
[12] = test system: Rattus norvegicus; test: Change in systolic blood pressure in anesthetized spontaneous hypertensive rats when 20 mg/kg of compound was administered intravenously; type: functional, Artery; settings: route intravenous
[13] = test system: Canis lupus familiaris; test: Dose required to induce at least 50% inhibition of the isoprenaline-induced effect, administered intravenously
[14] = test system: Rattus norvegicus; test: Duration of action of 20 mg/kg intravenous dose of compound was determined in SHR test for antihypertensive activity in rats; type: functional
[15] = biological target: Beta-2 adrenergic receptor (Cavia porcellus) (UniProt Q8K4Z4); test: Antagonist activity of compound against Beta-2 adrenergic receptor in isolated guinea pig trachea; inactive; type: functional, tissue-based
[16] = test system: Beta-2 adrenergic receptor (Cavia porcellus); test: Antagonist activity of compound against beta-2 adrenergic receptor in isolated guinea pig trachea; Inactive at a concentration of 10e-4 M/L
[17] = biological target: Beta-1 adrenergic receptor (Cavia porcellus, UniProt B0FL73); test: as §1; type: functional; settings: read-out: pA2 app (converted)
[18] = test system: Rattus norvegicus; test: Change in systolic blood pressure in anesthetized spontaneous hypertensive rats when 5 mg/kg of compound was administered intravenously; type: functional, Artery; settings: route intravenous
[19] = test system: Rattus norvegicus; test: Duration of action of 10 mg/kg intravenous dose of compound was determined in SHR test for antihypertensive activity in rats; type: functional
[20] = test system: Rattus norvegicus; test: Change in diastolic blood pressure in anesthetized spontaneous hypertensive rats when 10 mg/kg of compound was administered intravenously; type: functional, Artery; settings: route intravenous
[21] = test system: Rattus norvegicus; test: Change in systolic blood pressure in anesthetized spontaneous hypertensive rats when 10 mg/kg of compound was administered intravenously; type: functional, Artery; settings: route intravenous

Chain of Beta-2 adrenergic receptor (Cavia porcellus) (UniProt Q8K4Z4) (Q8K4Z4 whole entry, looked up): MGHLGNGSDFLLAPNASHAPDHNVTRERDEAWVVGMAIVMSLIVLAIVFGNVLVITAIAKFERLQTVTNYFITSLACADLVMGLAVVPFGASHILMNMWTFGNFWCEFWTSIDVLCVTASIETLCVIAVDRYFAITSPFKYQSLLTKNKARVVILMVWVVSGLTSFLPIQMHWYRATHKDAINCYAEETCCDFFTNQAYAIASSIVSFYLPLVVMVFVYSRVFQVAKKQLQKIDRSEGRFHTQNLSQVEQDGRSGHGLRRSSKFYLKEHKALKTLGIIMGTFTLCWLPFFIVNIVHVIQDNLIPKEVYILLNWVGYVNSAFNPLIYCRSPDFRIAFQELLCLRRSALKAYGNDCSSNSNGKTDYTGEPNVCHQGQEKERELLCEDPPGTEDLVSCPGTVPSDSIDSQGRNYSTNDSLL
Chain of Beta-1 adrenergic receptor (B0FL73 whole entry): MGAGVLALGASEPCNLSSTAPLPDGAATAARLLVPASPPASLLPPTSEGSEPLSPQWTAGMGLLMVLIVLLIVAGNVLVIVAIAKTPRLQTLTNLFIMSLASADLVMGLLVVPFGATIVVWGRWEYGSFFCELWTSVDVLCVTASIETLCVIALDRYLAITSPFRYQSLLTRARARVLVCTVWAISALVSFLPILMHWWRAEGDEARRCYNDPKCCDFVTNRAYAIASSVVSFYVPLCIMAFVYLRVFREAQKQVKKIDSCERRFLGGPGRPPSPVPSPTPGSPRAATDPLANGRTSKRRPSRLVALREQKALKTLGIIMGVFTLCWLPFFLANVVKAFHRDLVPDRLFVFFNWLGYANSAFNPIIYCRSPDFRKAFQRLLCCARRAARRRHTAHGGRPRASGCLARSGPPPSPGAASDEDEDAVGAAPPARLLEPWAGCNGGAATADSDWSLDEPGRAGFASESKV
Chain of Beta-1 adrenergic receptor (Cavia porcellus) (B0FL73 1-467): as the sequence (B0FL73 whole entry) above

pD2 app [1]	Kb [17]	SMILES	Change in BP [3]	Change in BP [5]	Duration of action [6]	Duration of action [7]	Change in BP [8]	Change in BP [9]	Change in BP [12]	Dose [13]	further results
4.84	–	COc1ccccc1N1CCN(CC(O)C2=COc3ccccc3O2)CC1 (stereo not given)	-41%	-41%	>45 min	>45 min	-41%	–	–	–	pA2 app [2]: inactive; Change in BP [4]: -41%
–	617 nM	OC(CN1CCCCC1)C1=COc2ccccc2O1 (stereo not given)	–	–	–	–	–	-78%	-66%	–	Duration of action [14]: 20 min
4.89	–	Oc1nc2ccccc2n1C1CCN(CC(O)C2=COc3ccccc3O2)CC1 (stereo not given)	-38%	-43%	>25 min	>25 min	-43%	–	–	1 mg/kg	pD2 app [10]: inactive; Change in BP [4]: -38%

The remaining lines, values behind:

SMILES	pD2 app [1]	Kb [17]	Change in BP [3]	Change in BP [5]	Duration of action [6]	Duration of action [7]	Change in BP [8]	Change in BP [9]	Change in BP [12]	Dose [13]	further results
CC(=O)Nc1ccc(OCC(O)CNC(C)C)cc1 (stereo not given) [PRACTOLOL]	–	–	–	–	–	–	–	-31%	-32%	2.5 mg/kg	pD2 app [10]: inactive; Duration of action [11]: 45 min
OC(CN1CCN(c2cccc(C(F)(F)F)c2)CC1)C1=COc2ccccc2O1 (stereo not given)	–	–	–	–	–	–	–	-83%	-65%	10 mg/kg	Duration of action [14]: 20 min; pD2 app [15]: inactive; pA2 app [16]: inactive
CC(C)NCC(O)COc1cccc2ccccc12 (stereo not given) [PROPRANOLOL]	–	–	–	-64%	–	–	–	–	–	0.25 mg/kg	Change in BP [18]: -54%; Duration of action [11]: 30 min
COc1ccc(CCNCC(O)C2=COc3ccccc3O2)cc1OC (stereo not given)	–	–	-33%	–	>25 min	>25 min	-37%	–	–	1 mg/kg	–
CC(C)NCC(O)C1=COc2ccccc2O1 (stereo not given)	–	–	–	-60%	–	>45 min	–	–	–	–	Change in BP [18]: -49%
CC(C)(C)NCC(O)C1=COc2ccccc2O1 (stereo not given)	4.8	8.51 nM	–	–	–	–	–	–	–	1 mg/kg	Duration of action [19]: 25 min; Change in BP [20]: -57%; Change in BP [21]: -50%
OC(CN1CCCCCC1)C1=COc2ccccc2O1 (stereo not given)	–	1170 nM	–	–	–	–	–	–	–	10 mg/kg	Duration of action [19]: 20 min; Change in BP [20]: -57%; Change in BP [21]: -44%
